Laboratory results as given in PubChem BioAssay AID330 (DTP/NCI, 2004).
Several values for one entry are separate records, joined by “and”; a condition that tells them apart may be missing. Equal values may be shown once. Inconclusive results and toxic doses are left out. The calls were made as follows: active = survival T/C of 150% or more; inactive = T/C below 125% in these data.

System: P388 leukemia ip, CD2F1 mice, survival T/C
Assay: NCI In Vivo Anticancer Drug Screen. Data for tumor model P388 Leukemia (intraperitoneal) in CD2F1 (CDF1) mice
Conditions: endpoint: median survival time, higher = longer survival
In short: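 Mice carrying the transplanted tumor received test compound or vehicle. Survival was recorded in each group, and the value is the treated-group measurement divided by that of the vehicle-treated control group.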

[1] = dose: 50.0 mg/kg/injection, schedule: Q01DX005 (ip), vehicle: saline with Tween-80
[2] = dose: 100.0 mg/kg/injection, schedule: Q01DX005 (ip), vehicle: saline with Tween-80
[3] = dose: 200.0 mg/kg/injection, schedule: Q01DX005 (ip), vehicle: saline with Tween-80
[4] = dose: 100.0 mg/kg/injection, schedule: Q01DX001 (ip), vehicle: saline with Tween-80
[5] = dose: 200.0 mg/kg/injection, schedule: Q01DX001 (ip), vehicle: saline with Tween-80
[6] = dose: 400.0 mg/kg/injection, schedule: Q01DX001 (ip), vehicle: saline with Tween-80
[7] = dose: 100.0 mg/kg/injection, schedule: Q04DX003 (ip), vehicle: saline with Tween-80
[8] = dose: 200.0 mg/kg/injection, schedule: Q04DX003 (ip), vehicle: saline with Tween-80
[9] = dose: 100.0 mg/kg/injection, schedule: Q01DX009 (ip), vehicle: saline with Tween-80
[10] = dose: 200.0 mg/kg/injection, schedule: Q01DX009 (ip), vehicle: saline with Tween-80
[11] = dose: 50.0 mg/kg/injection, schedule: Q01DX009 (ip), vehicle: saline with Tween-80

Measured: T/C

O=c1c(CS(=O)(=O)c2ccccc2)c(-c2ccccc2)c1=O
inactive: dose: 100.0 mg/kg/injection, schedule: Q04DX002 (ip), vehicle: saline with Tween-80 104 % of control | dose: 200.0 mg/kg/injection, schedule: Q04DX002 (ip), vehicle: saline with Tween-80 104 % of control | dose: 400.0 mg/kg/injection, schedule: Q04DX002 (ip), vehicle: saline with Tween-80 97 % of control

N=C(N)SC1C=C(O)C=C(c2c(O)c(=O)oc3ccccc23)C1=O (configuration not stated)
inactive: [1] 104 % of control | [2] 103 % of control | [3] 88 % of control

O=C(NCc1nc2ncc(Br)cc2[nH]1)c1ccccc1
inactive: [4] 100 % of control | [5] 100 % of control | [6] 98 % of control

C=CCN(CC=C)CCSC(=S)NCCOC
inactive: [7] 100 % of control | [8] 95 % of control

COc1cc2c(cc1OC)C1C(O)C(OC)C(O)C3=CCN(C2)C31 (configuration not stated)
inactive: dose: 50.0 mg/kg/injection, schedule: Q01DX009 (ip), vehicle: saline 100 % of control | dose: 100.0 mg/kg/injection, schedule: Q01DX009 (ip), vehicle: saline 104 % of control | dose: 200.0 mg/kg/injection, schedule: Q01DX009 (ip), vehicle: saline 102 % of control

C=C(CN1CCN(C)CC1)C(=O)c1ccccc1
inactive: dose: 1.89 mg/kg/injection, schedule: Q01DX005 (ip), vehicle: saline 113 % of control | dose: 3.75 mg/kg/injection, schedule: Q01DX005 (ip), vehicle: saline 116 % of control | dose: 7.5 mg/kg/injection, schedule: Q01DX005 (ip), vehicle: saline 105 % of control and 112 % of control

O=S(=O)(Nc1ccc(Br)cc1)c1ccccc1
inactive: [9] 100 % of control | [7] 100 % of control | [10] 90 % of control | [8] 95 % of control | dose: 400.0 mg/kg/injection, schedule: Q01DX009 (ip), vehicle: saline with Tween-80 100 % of control | dose: 400.0 mg/kg/injection, schedule: Q04DX003 (ip), vehicle: saline with Tween-80 91 % of control

O=C1C2CC34CCCN5CC1C1(c6ccccc6NC21CC3)C54 (configuration not stated)
inactive: dose: 12.5 mg/kg/injection, schedule: Q01DX005 (ip), vehicle: Klucel (hydroxypropylcellulose) (HPC) 103 % of control | dose: 25.0 mg/kg/injection, schedule: Q01DX005 (ip), vehicle: Klucel (hydroxypropylcellulose) (HPC) 98 % of control | dose: 50.0 mg/kg/injection, schedule: Q01DX005 (ip), vehicle: Klucel (hydroxypropylcellulose) (HPC) 103 % of control

C/C=c1/[nH]c(=O)/c(=C\c2ccc(Cl)cc2)[nH]c1=O
inactive: dose: 50.0 mg/kg/injection, schedule: Q01DX009 (ip), vehicle: Klucel (hydroxypropylcellulose) (HPC) 91 % of control | dose: 100.0 mg/kg/injection, schedule: Q01DX009 (ip), vehicle: Klucel (hydroxypropylcellulose) (HPC) 93 % of control | dose: 200.0 mg/kg/injection, schedule: Q01DX009 (ip), vehicle: Klucel (hydroxypropylcellulose) (HPC) 94 % of control

CCN(CC)CCOC(=O)c1ccc(N=C/C=C/C(C#N)=C/NOC)cc1
inactive: [11] 113 % of control | [9] 101 % of control | [10] 103 % of control

CC1(C)CC(O)CC2(C)OC(=O)C=C12 (configuration not stated)
inactive: dose: 2.5 mg/kg/injection, schedule: Q01DX009 (ip), vehicle: DMSO 101 % of control | dose: 5.0 mg/kg/injection, schedule: Q01DX009 (ip), vehicle: DMSO 103 % of control | dose: 10.0 mg/kg/injection, schedule: Q01DX009 (ip), vehicle: DMSO 91 % of control

CC(C)(C)OOC(=O)c1ccc2ccccc2c1
inactive: dose: 60.0 mg/kg/injection, schedule: Q01DX005 (ip), vehicle: saline with Tween-80 109 % of control | dose: 120.0 mg/kg/injection, schedule: Q01DX005 (ip), vehicle: saline with Tween-80 97 % of control | dose: 240.0 mg/kg/injection, schedule: Q01DX005 (ip), vehicle: saline with Tween-80 93 % of control

COC(=O)C(O)CC1=CC[C@@H]2CC=C[C@H]12 (some centres not stated)
inactive: [1] 104 % of control | [2] 104 % of control | [3] 104 % of control

COc1cc(C2N=C(N)N=C(N)N2c2ccc(S(N)(=O)=O)cc2)cc(OC)c1OC (configuration not stated)
inactive: dose: 60.0 mg/kg/injection, schedule: Q01DX005 (ip), vehicle: Klucel (hydroxypropylcellulose) (HPC) 103 % of control | dose: 120.0 mg/kg/injection, schedule: Q01DX005 (ip), vehicle: Klucel (hydroxypropylcellulose) (HPC) 103 % of control

CC1=NN(C(=O)c2ccncc2)C(=O)C1N=Nc1c(C)n(C)n(-c2ccccc2)c1=O (configuration not stated)
inactive: [11] 102 % of control | [9] 101 % of control | [10] 99 % of control

CCOC(=O)Nc1cc2c(c(N)n1)N=C(c1ccc(Cl)cc1)CN2
inactive: dose: 1.5 mg/kg/injection, schedule: Q01DX009 (ip), vehicle: Klucel (hydroxypropylcellulose) (HPC) 92 % of control | dose: 3.0 mg/kg/injection, schedule: Q01DX009 (ip), vehicle: Klucel (hydroxypropylcellulose) (HPC) 111 % of control | dose: 12.0 mg/kg/injection, schedule: Q01DX009 (ip), vehicle: Klucel (hydroxypropylcellulose) (HPC) 95 % of control | dose: 12.5 mg/kg/injection, schedule: Q01DX009 (ip), vehicle: Klucel (hydroxypropylcellulose) (HPC) 86 % of control | dose: 50.0 mg/kg/injection, schedule: Q04DX003 (ip), vehicle: Klucel (hydroxypropylcellulose) (HPC) 101 % of control

COc1cc(/C=C/C(=O)NCCc2ccc(OCc3ccccc3)c(OC)c2)ccc1OCc1ccccc1
inactive: [4] 88 % of control | [5] 89 % of control | [6] 90 % of control

O=[N+]([O-])c1ccc2nc(N/N=C/COC/C=N/Nc3nc4ccc([N+](=O)[O-])cc4s3)sc2c1
inactive: dose: 100.0 mg/kg/injection, schedule: Q01DX001 (ip), vehicle: saline 94 % of control | dose: 200.0 mg/kg/injection, schedule: Q01DX001 (ip), vehicle: saline 104 % of control | dose: 400.0 mg/kg/injection, schedule: Q01DX001 (ip), vehicle: saline 96 % of control

CN(CCCCn1cnc2ccccc21)N=O
inactive: dose: 20.0 mg/kg/injection, schedule: Q01DX001 (ip), vehicle: Klucel (hydroxypropylcellulose) (HPC) 110 % of control | dose: 40.0 mg/kg/injection, schedule: Q01DX001 (ip), vehicle: Klucel (hydroxypropylcellulose) (HPC) 102 % of control | dose: 80.0 mg/kg/injection, schedule: Q01DX001 (ip), vehicle: Klucel (hydroxypropylcellulose) (HPC) 110 % of control

CCN(CC)C(=NC(C)C)c1ccccc1
inactive: dose: 12.5 mg/kg/injection, schedule: Q01DX009 (ip), vehicle: saline 98 % of control | dose: 25.0 mg/kg/injection, schedule: Q01DX009 (ip), vehicle: saline 94 % of control

O=C(O)c1cccc([N+](=O)[O-])c1C(=O)c1ccccc1
inactive: dose: 25.0 mg/kg/injection, schedule: Q01DX009 (ip), vehicle: saline with Tween-80 100 % of control | [11] 95 % of control | dose: 50.0 mg/kg/injection, schedule: Q04DX003 (ip), vehicle: saline with Tween-80 91 % of control | [9] 100 % of control | [7] 95 % of control
